# Source: article PMC5674183 (2017)
# What was measured:
# [1] = test system: BCL-2-G (DNA, G4) AGGGGCGGGCGCGGGAGGAAGGGGGCGGGAGCGGGGCGT; assay: thiazole orange displacement (fluorescence); conditions: K+ (60 mM K-cacodylate); pH 7; 0.5 μM thiazole orange displaced, 0.25 μM DNA
# [2] = test system: 3′-TAMRA-BCL-2-C (DNA, i motif) CAGCCCCGCTCCCGCCCCCTTCCTCCCGCGCCCGCCCCT; assay: fluorescence quenching titration; conditions: K+ (60 mM K-cacodylate); pH 6 (folded at pH 4.8), 25 °C, 250 nM DNA
# [3] = test system: c-MYC-C (DNA, i motif) TCCCCACCTTCCCCACCCTCCCCACCCTCCCCA; assay: thiazole orange displacement (fluorescence); conditions: K+ (60 mM K-cacodylate); pH 6 (folded at pH 4.8); 0.5 μM thiazole orange displaced, 0.25 μM DNA
# [4] = test system: dual labeled ds DNA (DNA, hairpin, hexaethylene glycol (HEG) linker between 10 and 11) TATAGCTATATATAGCTATA; assay: FRET melting; conditions: K+ (60 mM K-cacodylate), pH 6 (Table 1; also pH 7), 1 μM compound, 100 nM DNA
# [5] = test system: h-TELO-G (DNA, G4) GGGTTAGGGTTAGGGTTAGGG; assay: thiazole orange displacement (fluorescence); conditions: K+ (60 mM K-cacodylate); pH 7; thiazole orange displaced, 0.25 μM DNA
# [6] = test system: 5′-TAMRA-BCL-2-G (DNA, G4) AGGGGCGGGCGCGGGAGGAAGGGGGCGGGAGCGGGGCGT; assay: fluorescence quenching titration; conditions: K+ (60 mM K-cacodylate); pH 7, 25 °C, 250 nM DNA
# [7] = test system: 3′-TAMRA-BCL-2-G (DNA, G4) AGGGGCGGGCGCGGGAGGAAGGGGGCGGGAGCGGGGCGT; assay: fluorescence quenching titration; conditions: K+ (60 mM K-cacodylate); pH 7, 25 °C, 250 nM DNA
# [8] = test system: h-TELO-C (DNA, i motif) TAACCCTAACCCTAACCCTAACCC; assay: thiazole orange displacement (fluorescence); conditions: K+ (60 mM K-cacodylate); pH 6; thiazole orange displaced, 0.25 μM DNA
# [9] = test system: BCL-2-C (DNA, i motif) CAGCCCCGCTCCCGCCCCCTTCCTCCCGCGCCCGCCCCT; assay: thiazole orange displacement (fluorescence); conditions: K+ (60 mM K-cacodylate); pH 6 (folded at pH 4.8); 0.5 μM thiazole orange displaced, 0.25 μM DNA
# [10] = test system: dual labeled c-MYC-G (DNA, G4) TGGGGAGGGTGGGGAGGGTGGGGAAGGTGGGGA; assay: FRET melting; conditions: K+ (60 mM K-cacodylate); pH 7; 1 μM compound, 100 nM DNA
# [11] = test system: 3′-TAMRA-c-MYC-G (DNA, G4) TGGGGAGGGTGGGGAGGGTGGGGAAGGTGGGGA; assay: fluorescence quenching titration; conditions: K+ (60 mM K-cacodylate); pH 7, 25 °C, 250 nM DNA
# [12] = test system: 5′-TAMRA-BCL-2-C (DNA, i motif) CAGCCCCGCTCCCGCCCCCTTCCTCCCGCGCCCGCCCCT; assay: fluorescence quenching titration; conditions: K+ (60 mM K-cacodylate); pH 6 (folded at pH 4.8), 25 °C, 250 nM DNA
# [13] = test system: 3′-TAMRA-c-MYC-C (DNA, i motif) TCCCCACCTTCCCCACCCTCCCCACCCTCCCCA; assay: fluorescence quenching titration; conditions: K+ (60 mM K-cacodylate); pH 6 (folded at pH 4.8), 25 °C, 250 nM DNA
# [14] = test system: 5′-TAMRA-c-MYC-G (DNA, G4) TGGGGAGGGTGGGGAGGGTGGGGAAGGTGGGGA; assay: fluorescence quenching titration; conditions: K+ (60 mM K-cacodylate); pH 7, 25 °C, 250 nM DNA
# [15] = test system: c-MYC-G (DNA, G4) TGGGGAGGGTGGGGAGGGTGGGGAAGGTGGGGA; assay: thiazole orange displacement (fluorescence); conditions: K+ (60 mM K-cacodylate); pH 7; 0.5 μM thiazole orange displaced, 0.25 μM DNA
# [16] = test system: 5′-TAMRA-c-MYC-C (DNA, i motif) TCCCCACCTTCCCCACCCTCCCCACCCTCCCCA; assay: fluorescence quenching titration; conditions: K+ (60 mM K-cacodylate); pH 6 (folded at pH 4.8), 25 °C, 250 nM DNA
# [17] = test system: 5′-TAMRA-ds DNA (DNA, hairpin, hexaethylene glycol (HEG) linker between 10 and 11) TATAGCTATATATAGCTATA; assay: fluorescence quenching titration; conditions: K+ (60 mM K-cacodylate); pH 7, 25 °C, 250 nM DNA; up to 30 μM
# [18] = test system: dual labeled BCL-2-C (DNA, i motif) CAGCCCCGCTCCCGCCCCCTTCCTCCCGCGCCCGCCCCT; assay: FRET melting; conditions: K+ (60 mM K-cacodylate); pH 6 (folded at pH 4.8); 1 μM compound, 100 nM DNA
Structure (SMILES),DC50 [1],K d [2],DC50 [3],ΔT m ([4]; no shift up to 15 μM),DC50 [5],K d [6],K d [7],DC50 [8],DC50 [9],ΔT m [10],K d [11],K d [12],K d [13],K d [14],DC50 [15],K d [16],K d [17],ΔT m ([4]; no shift up to 10 μM),ΔT m [18]
CN(C)CCCOc1cc(C(=O)NCc2cn(-c3cccc(NC(=O)[C@@H]4CCCN4)c3)nn2)nc(C(=O)NCc2cn(-c3cccc(NC(=O)[C@@H]4CCCN4)c3)nn2)c1,2.4 ± 5% μM,10.5 ± 5% μM,6.8 ± 5% μM,1.1 ± 1 °C,4.7 ± 5% μM,1.9 ± 5% μM,4.5 ± 5% μM,> 15 µM,8.2 ± 5% μM,16 ± 1 °C,4.1 ± 5% μM,5.8 ± 5% μM,15.1 ± 5% μM,1.3 ± 5% μM,1.3 ± 5% μM,9.5 ± 5% μM,> 25 µM,,
O=C(NCc1cn(-c2ccc(NC(=O)[C@@H]3CCCN3)cc2)nn1)c1cccc(C(=O)NCc2cn(-c3ccc(NC(=O)[C@@H]4CCCN4)cc3)nn2)n1,9 ± 5% μM,,8.4 ± 5% μM,,8.4 ± 5% μM,,,10 ± 5% μM,7.9 ± 5% μM,,,,,,10.2 ± 5% μM,,,,
CN(C)CCCOc1cc(C(=O)NCc2cn(-c3ccc(NC(=O)[C@@H]4CCCN4)cc3)nn2)nc(C(=O)NCc2cn(-c3ccc(NC(=O)[C@@H]4CCCN4)cc3)nn2)c1,5.7 ± 5% μM,2.1 ± 5% μM,2.7 ± 5% μM,,9.8 ± 5% μM,7.2 ± 5% μM,11.5 ± 5% μM,4 ± 5% μM,0.9 ± 5% μM,,16.7 ± 5% μM,0.3 ± 5% μM,5.9 ± 5% μM,12.5 ± 5% μM,8.5 ± 5% μM,2.4 ± 5% μM,> 25 µM,0.94 ± 1 °C,29 ± 1 °C
